Measured values from US11000509B2, “Methods and compositions for daily ophthalmic administration of phentolamine to improve visual performance” (Ocuphire Pharma, Inc., priority 2013, dated 2021).
Structures can show the parent of a compound that is named as a salt.

Assays:
[1] = tested on: eyes of patients with pupil size in dim light of greater than 7 mm; experiment: Example 2 clinical study: monocular high contrast visual acuity under photopic conditions (100% tint chart); type: in vivo, humans
Procedure: Sixteen patients were randomized into four groups (of four subjects each). Each group was treated on three successive study visits separated by at least 4 days with one drop of ophthalmic oxymetazoline solution (Visine LR®) in each eye followed by one drop test article in each eye. The test article was a 0.2% (w/v) phentolamine mesylate solution, 0.4% (w/v) phentolamine mesylate solution, 0.8% (w/v) phentolamine mesylate solution, or placebo. Test articles contained the designed amount of phentolamine mesylate in a solution of Tears Naturale II® (from Alcon Labs). Placebo was just Tears Naturale II® (from Alcon Labs). Tears Naturale II® (from Alcon Labs) contains Dextran 70 (0.1% by weight), Hydroxypropyl Methylcellulose 2910 (0.3% by weight), Polyquarternium-1 (0.001% by weight), potassium chloride, water (purified), sodium borate, sodium chloride, and hydrochloric acid and/or sodium hydroxide as necessary to adjust the pH. The patients' eye redness and pupil diameters were recorded at baseline (i.e., prior to treatment administration), and at 30 minutes, 1 hour, 2 hours, 4 hours, and 8 hours after administration of test articles. The incidence of any treatment-emergent adverse events was also recorded. Total study duration was approximately nine hours.
Eye redness of patients' eyes was evaluated by the research assistant and recorded as a single integer of value 0 (no redness) to 4 (extreme redness) at baseline and each time point after treatment. Pupil diameters were measured to within 0.1 mm for each eye at baseline and each subsequent time point using a NeurOptics™ pupilometer. Monocular high contrast visual acuity was measured for each eye under photopic conditions at baseline and each subsequent time point in a darkened room using a Precision Vision™ High Contrast (100% tint) Visual Acuity Chart (Catalog #2102) backlit by the Precision Vision Illumination Box. Monocular low contrast visual acuity was measured for each eye under photopic conditions at baseline and each subsequent time point in a darkened room using a Precision Vision™ Low Contrast (5% tint) Visual Acuity Chart (Catalog #2186) backlit by the Precision Vision Illumination Box. Effect of treatment on glare was assessed using an experimental test method consisting of a panel with a high wattage central light emitting diode (LED) and a set of 7 lower wattage red LEDs radiating horizontally and vertically from the central light.
Comparisons of changes in mean values within treatment groups were tested for significance using two-tailed paired two sample t-tests with a threshold for significance set at p<0.01 (Bonferroni Correction for multiple paired t-tests). Differences between treatment groups with respect to mean values for pupil size over the course of the study were tested for significance using repeated measure ANOVA (which discards data from subjects lacking any data points). Differences in mean eye redness between treatment groups were evaluated using Kruskal-Wallis nonparametric testing. Differences in means between treatment groups at individual time points were tested for significance using one-way ANOVA.

[2] = tested on: eyes of patients suffering from severe night vision difficulty; experiment: Example 1 clinical study: reduction in pupil diameter; type: in vivo, humans; conditions: from percentage of eyes with at least 10% reduction in pupil diameter after the last dose, second period, 1% (w/v) (FIG. 4B)
Excerpt: Sixty patients with normal day vision (i.e., 20/40 or better) but which suffer from severe night vision difficulty were enrolled in the study. During the first period of the study, patients were randomized into three groups. The groups received either placebo, 0.5% (w/v) phentolamine mesylate, or 1.0% (w/v) phentolamine mesylate once daily for 15 days. The patients were observed on days 1, 4, 8, and 15 prior to administering the ophthalmic solution of phentolamine mesylate and then observed again two hours after the ophthalmic solution of phentolamine mesylate was administered. During the second period of the study, all sixty patients were instructed to administer an ophthalmic solution of phentolamine mesylate (1% (w/v)) as needed, but no more than once daily to each eye. The ophthalmic solution of phentolamine mesylate contained: 1% (w/v) phentolamine mesylate, 4% (w/v) mannitol, 3 mM sodium acetate, and water. The placebo was a solution containing 4% (w/v) mannitol, 3 mM sodium acetate, and water.

[3] = 0.2% (w/v) solution, 30 min after treatment
[4] = 0.2% (w/v) solution, 1 hour after treatment
[5] = 0.2% (w/v) solution, 2 hours after treatment
[6] = 0.2% (w/v) solution, 4 hours after treatment
[7] = 0.2% (w/v) solution, 8 hours after treatment
[8] = 0.2% (w/v) solution, Baseline, prior to treatment
[9] = 0.4% (w/v) solution, 30 min after treatment
[10] = 0.4% (w/v) solution, 1 hour after treatment
[11] = 0.4% (w/v) solution, 2 hours after treatment
[12] = 0.4% (w/v) solution, 4 hours after treatment
[13] = 0.4% (w/v) solution, 8 hours after treatment
[14] = 0.4% (w/v) solution, Baseline, prior to treatment
[15] = 0.8% (w/v) solution, 30 min after treatment
[16] = 0.8% (w/v) solution, 1 hour after treatment
[17] = 0.8% (w/v) solution, 2 hours after treatment
[18] = 0.8% (w/v) solution, 4 hours after treatment
[19] = 0.8% (w/v) solution, 8 hours after treatment
[20] = 0.8% (w/v) solution, Baseline, prior to treatment

Compound: Cc1ccc(N(CC2=NCCN2)c2cccc(O)c2)cc1 [Phentolamine Mesylate, phentolamine mesylate]
- Maximum high contrast visual acuity [1, 3]: 0.22 LogMar
- Mean high contrast visual acuity [1, 3]: 0.05 LogMar
- Minimum high contrast visual acuity [1, 3]: −0.32 LogMar
- Maximum high contrast visual acuity [1, 4]: 0.22 LogMar
- Mean high contrast visual acuity [1, 4]: 0.08 LogMar
- Minimum high contrast visual acuity [1, 4]: −0.20 LogMar
- Maximum high contrast visual acuity [1, 5]: 0.26 LogMar
- Mean high contrast visual acuity [1, 5]: 0.08 LogMar
- Minimum high contrast visual acuity [1, 5]: −0.22 LogMar
- Maximum high contrast visual acuity [1, 6]: 0.22 LogMar
- Mean high contrast visual acuity [1, 6]: 0.09 LogMar
- Minimum high contrast visual acuity [1, 6]: −0.20 LogMar
- Maximum high contrast visual acuity [1, 7]: 0.22 LogMar
- Mean high contrast visual acuity [1, 7]: 0.08 LogMar
- Minimum high contrast visual acuity [1, 7]: −0.32 LogMar
- Maximum high contrast visual acuity [1, 8]: 0.22 LogMar
- Mean high contrast visual acuity [1, 8]: 0.04 LogMar
- Minimum high contrast visual acuity [1, 8]: −0.32 LogMar
- Maximum high contrast visual acuity [1, 9]: 0.22 LogMar
- Mean high contrast visual acuity [1, 9]: 0.12 LogMar
- Minimum high contrast visual acuity [1, 9]: −0.20 LogMar
- Maximum high contrast visual acuity [1, 10]: 0.26 LogMar
- Mean high contrast visual acuity [1, 10]: 0.11 LogMar
- Minimum high contrast visual acuity [1, 10]: −0.20 LogMar
- Maximum high contrast visual acuity [1, 11]: 0.30 LogMar
- Mean high contrast visual acuity [1, 11]: 0.14 LogMar
- Minimum high contrast visual acuity [1, 11]: −0.10 LogMar
- Maximum high contrast visual acuity [1, 12]: 0.30 LogMar
- Mean high contrast visual acuity [1, 12]: 0.15 LogMar
- Minimum high contrast visual acuity [1, 12]: −0.11 LogMar
- Maximum high contrast visual acuity [1, 13]: 0.30 LogMar
- Mean high contrast visual acuity [1, 13]: 0.13 LogMar
- Minimum high contrast visual acuity [1, 13]: −0.18 LogMar
- Maximum high contrast visual acuity [1, 14]: 0.22 LogMar
- Mean high contrast visual acuity [1, 14]: 0.09 LogMar
- Minimum high contrast visual acuity [1, 14]: −0.24 LogMar
- Maximum high contrast visual acuity [1, 15]: 0.22 LogMar
- Mean high contrast visual acuity [1, 15]: 0.11 LogMar
- Minimum high contrast visual acuity [1, 15]: −0.16 LogMar
- Maximum high contrast visual acuity [1, 16]: 0.26 LogMar
- Mean high contrast visual acuity [1, 16]: 0.12 LogMar
- Minimum high contrast visual acuity [1, 16]: −0.10 LogMar
- Maximum high contrast visual acuity [1, 17]: 0.30 LogMar
- Mean high contrast visual acuity [1, 17]: 0.12 LogMar
- Minimum high contrast visual acuity [1, 17]: −0.16 LogMar
- Maximum high contrast visual acuity [1, 18]: 0.30 LogMar
- Mean high contrast visual acuity [1, 18]: 0.12 LogMar
- Minimum high contrast visual acuity [1, 18]: −0.20 LogMar
- Maximum high contrast visual acuity [1, 19]: 0.30 LogMar
- Mean high contrast visual acuity [1, 19]: 0.13 LogMar
- Minimum high contrast visual acuity [1, 19]: −0.20 LogMar
- Maximum high contrast visual acuity [1, 20]: 0.22 LogMar
- Mean high contrast visual acuity [1, 20]: 0.06 LogMar
- Minimum high contrast visual acuity [1, 20]: −0.41 LogMar
- maximal mean increase in high contrast visual acuity ([1]; 0.8%, at 4 and 8 hours): 0.06 Log Mar
- improvement in high contrast vision ([1]; 0.8%, at 4 and 8 hours, equivalent of the maximal mean increase): ~3 letters on a Snellen chart
- pharmacokinetic half-life [2]: approximately two
